pIC50: −log10 of the molar value.
Assays:
[1] = biological target: T1, human PHD2 (Homo sapiens (Human), UniProt Q9GZT9); experiment: Test 2: human PHD2 inhibitory activity, fluorescence polarization assay of HIF-1α peptide proline hydroxylation; type: biochemical; conditions: for inhibition at 1 µM: test compound's concentration 1 μM, Test 2, fluorescence polarization assay, read-out: Percent inhibition (% at 1 μM); for pIC50: human PHD2, fluorescence polarization assay, 20-min incubation at 30° C.
In short: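 Enzyme from lysate of cells expressing human PHD2 (NM_022051), 40 ng/well, added to compound and 19-residue HIF-1α peptide substrate; 20 min at 30° C., EDTA quench. Prolyl hydroxylation detected by HIF-OH antibody binding via fluorescence polarization; inhibition relative to compound-free wells.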

[2] = biological target: T1, human PHD2; experiment: Test 1: human PHD2 inhibitory activity, [14C]-2-oxoglutarate to [14C]-succinic acid radiometric assay with HIF-1α peptide; type: biochemical; conditions: test compound's concentration 1 μM; Test 1, [14C]-2-oxoglutarate radiometric assay; read-out: Percent inhibition (% at 1 μM)
Procedure: (1) Expression and Preparation of Human PHD2
Human PHD2 was expressed in insect cells (HighFive cells). A registered sequence of human PHD2 (NM_022051) was introduced into the pFastBacl vector (Invitrogen), and the sequence was verified. The vector was introduced into Sf9 insect cells (Invitrogen) to acquire human PHD2 baculovirus. HighFive insect cells (Invitrogen) were infected with this recombinant virus and cultured at 27° C. for 72 hours; thereafter, a cell lysis solution containing various protease inhibitors was added and the cells were disrupted to form a suspension. The suspension of disrupted cells was centrifuged at 4° C. and 100,000×g for 30 minutes and the supernatant was recovered as a cell lysate.
(2) Measurement of Human PHD2 Inhibitory Activity
The activity of human PHD2 enzyme was measured with a substrate which is a 19-residue partial peptide based on the sequence of HIF-1α. Specifically, the conversion of 2-oxoglutarate to succinic acid which would occur simultaneously with the hydroxylation of a proline residue in the peptide with the PHD2 enzyme was utilized. To be more specific, [^14C]-2-oxogiutarate was added to the reaction system to initiate an enzymatic reaction and the [^14C]-2-oxoglutarate remaining after the reaction was bound to 2,4-dinitrophenylhydrazine (DNPH), with the resulting precipitate being removed by passage through a filter. Subsequently, radiation counting was conducted on the resulting [^14C]-succinic acid.
A test compound, HIF-1αpeptide and [^14C]-2-oxoglutarate were preliminarily added onto 96-well plates and reaction was initiated by adding a human PHD2 enzyme solution (4 μg/well). After 15-min incubation at 37° C., a DNPH-containing quench solution was added and the mixture was allowed to stand at room temperature for 30 minutes. Thereafter, an excess of non-radiolabelled 2-oxoglutarate was added and the mixture was allowed to stand at room temperature for 60 minutes. The resulting precipitate was removed by passage through a filter and the radiation count on the [^14C]-succinic acid was quantified (with MicroBeta). Radiation counting was conducted for each well and the human PHD2 inhibitory activity of each test compound was calculated on the basis of the values for the substrate-free group and the test compound-free group.

T1 sequence (Q9GZT9 whole entry): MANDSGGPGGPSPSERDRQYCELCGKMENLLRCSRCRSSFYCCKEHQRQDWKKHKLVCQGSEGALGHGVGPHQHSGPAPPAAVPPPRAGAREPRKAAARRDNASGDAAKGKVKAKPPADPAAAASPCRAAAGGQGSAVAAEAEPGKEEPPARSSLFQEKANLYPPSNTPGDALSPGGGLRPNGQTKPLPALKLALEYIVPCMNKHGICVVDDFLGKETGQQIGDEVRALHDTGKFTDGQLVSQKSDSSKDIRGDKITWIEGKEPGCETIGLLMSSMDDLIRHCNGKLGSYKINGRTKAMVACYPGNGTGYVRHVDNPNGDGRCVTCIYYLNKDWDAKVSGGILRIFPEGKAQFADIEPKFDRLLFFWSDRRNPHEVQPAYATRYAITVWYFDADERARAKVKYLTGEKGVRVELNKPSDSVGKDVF

| inhibition at 1 µM [1] [%] | inhibition at 1 µM [2] [%] | pIC50 [1] | Compound |
| --- | --- | --- | --- |
| 83 | 81 |  | Cc1ccccc1-n1ncc(CN2CCC(O)=C(C(=O)NCC(=O)O)C2=O)c1C [Ex. 1-263] |
| 91 | 91 |  | O=C(O)CNC(=O)C1=C(O)CCN(Cc2ccc(OC3CCCC3)cc2)C1=O [Ex. 1-271] |
| 49 | 44 |  | Cc1cc(CN2C(=O)C(C(=O)NCC(=O)O)=C(O)CC2(C)C)ccc1F [Ex. 1-179] |
| 71 | 58 |  | COc1cccc(CN2CCC(O)=C(C(=O)NCC(=O)O)C2=O)c1 [Ex. 1-61] |
| 93 | 96 |  | O=C(O)CNC(=O)C1=C(O)CCN(Cc2ccc(-c3ccncc3)cc2)C1=O [Ex. 2-19] |
| 86 | 46 |  | CC(C)(C)c1ccc(-c2ccc(CN3C(=O)C(C(=O)NCC(=O)O)=C(O)CC34CCOCC4)cc2)cc1 [Ex. 1-87] |
| 43 | 30 |  | Cn1nc(CN2C(=O)C(C(=O)NCC(=O)O)=C(O)CC2(C)C)cc1-c1ccccc1 [Ex. 1-300] |
| 71 | 66 |  | Cc1ccc(CN2C(=O)C(C(=O)NCC(=O)O)=C(O)CC23CCC3)cc1 [Ex. 1-121] |
| 69 | 61 |  | CC1(C)CC(O)=C(C(=O)NCC(=O)O)C(=O)N1Cc1ccc(C2CC2)cc1 [Ex. 1-203] |
| 103 | 107 | 7.40 | O=C(O)CNC(=O)C1=C(O)CCN(Cc2ccc(Oc3cccc(Cl)c3)nc2)C1=O [Ex. 1-284] |
| 78 | 70 |  | CC1CC(O)=C(C(=O)NCC(=O)O)C(=O)N1Cc1ccc(C(F)(F)F)cc1 (stereo not drawn) [Ex. 1-78] |
| 97 | 90 |  | O=C(O)CNC(=O)C1=C(O)CCN(Cc2ccc(-c3ccc(F)cc3)cc2)C1=O [Ex. 2-28] |
| 92 | 93 |  | Cc1ccc(Oc2ccc(CN3CC(C)(C)C(O)=C(C(=O)NCC(=O)O)C3=O)cn2)cc1 [Ex. 1-276] |
| 93 | 88 |  | O=C(O)CNC(=O)C1=C(O)CC2(CCCC2)N(Cc2ccc(-c3ccccc3)cc2)C1=O [Ex. 1-9] |
| 57 | 52 |  | COc1ccc(CN2C(=O)C(C(=O)NCC(=O)O)=C(O)CC2(C)C)cc1Cl [Ex. 1-195] |
| 92 | 83 |  | O=C(O)CNC(=O)C1=C(O)C2(CCOCC2)CN(CC2CCC(c3ccccc3)CC2)C1=O (stereo not drawn) [Ex. 1-117] |
| 99 | 92 |  | O=C(O)CNC(=O)C1=C(O)CCN(Cc2ccc(OCC3CCC3)cc2)C1=O [Ex. 1-238] |
| 88 | 84 |  | O=C(O)CNC(=O)C1=C(O)C2(CC2)CN(Cc2ccc(C(F)(F)F)cc2)C1=O [Ex. 1-147] |
| 84 | 85 |  | O=C(O)CNC(=O)C1=C(O)C2(CCOCC2)CN(Cc2ccc(-c3ccc(C(F)(F)F)cc3)cc2)C1=O [Ex. 1-119] |
| 95 | 101 |  | O=C(O)CNC(=O)C1=C(O)CCN(Cc2ccc(-c3ccc(F)cc3)c(F)c2)C1=O [Ex. 2-29] |
| 87 | 92 |  | COc1ccc(-c2ccc(CN3CCC(O)=C(C(=O)NCC(=O)O)C3=O)cc2)cn1 [Ex. 2-13] |
| 90 | 81 |  | O=C(O)CNC(=O)C1=C(O)CCN(Cc2ccc(-c3ccccn3)cc2)C1=O [Ex. 1-35] |
| 97 | 91 |  | O=C(O)CNC(=O)C1=C(O)CCN(Cc2ccc(OCc3ccccc3)cc2)C1=O [Ex. 1-240] |
| 75 | 58 |  | O=C(O)CNC(=O)C1=C(O)CCN(CCc2ccccc2)C1=O [Ex. 1-34] |
| 66 | 69 |  | Cc1ccc(CN2CC(C)C(O)=C(C(=O)NCC(=O)O)C2=O)cc1 (stereo not drawn) [Ex. 1-92] |
| 104 | 94 | 7.35 | O=C(O)CNC(=O)C1=C(O)CCN(Cc2ccc(Oc3cccc(OC(F)(F)F)c3)nc2)C1=O [Ex. 1-287] |
